Publication PMC7320011, “Rationally designed ruthenium complexes for 1- and 2-photon photodynamic therapy” (Nature Communications, 2020)
Like-named read-outs stand apart in the source and are kept apart here.

What was measured:
[1] = Two-photon absorption cross section; format: physicochemical; details: dichloromethane
Experimental: The two-photon absorption cross section spectra of the sample was determined upon direction comparison to Rhodamine B. The sample was irradiated with an OpoletteTM 355II (pulse width ≤ 100 fs, 80 MHz repetition rate, Spectra Physics Inc.) laser. The experimental excitation and detection conditions were conducted with negligible reabsorption processes, which could affect two-photon absorption measurements. The quadratic dependence of the two-photon induced luminescence intensity on the excitation power was verified at an excitation wavelength of 800 nm. The two-photon absorption cross section was calculated using the following equation:1 σ2,sample=σ2,reference×Φreference×creference×Isample×nsample/Φsample×csample×Ireference×nreference,
σ2 = two-photon cross section, Φ = luminescence quantum yield, c = concentration, I = integrated luminescence intensity, n = refractive index

[2] = Emission and luminescence quantum yield; format: physicochemical; details: acetonitrile
Experimental: The absorption spectra of the sample was measured with a SpectraMax M2 Spectrometer (Molecular Devices). For the measurements of the emission, the sample was irradiated at 355 nm with a NT342B Nd-YAG pumped optical parametric oscillator (Ekspla). The emission was focused at right angle to the excitation pathway and directed to a Princeton Instruments Acton SP-2300i monochromator. The signal was detected with a XPI-Max 4 CCD camera (Princeton Instruments).
The sample was prepared in an acetonitrile solution with an absorption of 0.1 at 355 nm. The sample was irradiated at 355 nm with a NT342B Nd-YAG pumped optical parametric oscillator (Ekspla). The emission was focused at right angle to the excitation pathway and directed to a Princeton Instruments Acton SP-2300i monochromator. The signal was detected with a XPI-Max 4 CCD camera (Princeton Instruments). The luminescence quantum yields were determined by comparison with the reference [Ru(2,2′-bipyridine)3]Cl2 in acetonitrile (Φem = 5.9%)[58] applying the following formula:2 Φem,sample=Φem,reference×Freference/Fsample×Isample/Ireference×nsample/nreference^2, 3 F=1−10^-A. Φem = luminescence quantum yield, F = fraction of light absorbed, I = integrated emission intensities, n = refractive index, A = absorbance of the sample at irradiation wavelength.

Excited state lifetime = format: physicochemical; details: for τ air, excited state lifetime: air saturated acetonitrile; for τ degassed, excited state lifetime: degassed acetonitrile
Experimental: The sample was prepared in an air saturated as well as a degassed acetonitrile solution with an absorption of 0.2 at 355 nm. The sample was irradiated at 355 nm with a NT342B Nd-YAG pumped optical parametric oscillator (Ekspla). The emission was focused at right angle to the excitation pathway and directed to a Princeton Instruments Acton SP-2300i monochromator. The signal was detected with a R928 photomultiplier tube (Hamamatsu).

[3] = Singlet oxygen quantum yield, direct evaluation (1O2 phosphorescence); format: physicochemical
Experimental: Direct evaluation: the sample was prepared in an air-saturated acetonitrile or deuterated water solution with an absorption of 0.2 at 450 nm. The sample was irradiated at 450 nm with a mounted M450LP1 LED (Thorlabs), whose light was focused with aspheric condenser lenses. Using a T-Cube LED Driver (Thorlabs), the intensity of the irradiation was varied and monitored with an optical power and energy meter. The emission was focused at right angle to the excitation pathway and directed to a Princeton Instruments Acton SP-2300i monochromator. To cut off light at wavelengths shorter than 850 nm, a longpass glass filter was placed in front of the monochromator entrance slit. The signal was detected with an EO-817L IR-sensitive liquid-nitrogen cooled germanium diode detector (North Coast Scientific Corp.). The luminescence signal, centered at 1270 nm, was measured from 1100 to 1400 nm. The obtained data were analyzed upon plotting the integrated luminescence peaks against the percentage of the irradiation intensity. The slope of the linear regression was calculated and compared with the reference Rose Bengal (Φ = 76%)[59]. The absorption of the sample was corrected with an absorption correction factor. The singlet oxygen quantum yields were calculated using the following formula:4 Φsample=Φreference×Ssample/Sreference×Ireference/Isample, 5 I=I0×1−10^-A.
Φ = singlet oxygen quantum yield, S = slope of the linear regression of the plot of the areas of the singlet oxygen luminescence peaks against the irradiation intensity, I = absorption correction factor, I0 = light intensity of the irradiation source, and A = absorption of the sample at irradiation wavelength.

[4] = Photostability (absorption spectra upon irradiation); format: physicochemical; details: 450 nm, 0 to 10 min (13.2 J cm^−2), air-saturated acetonitrile
Experimental: The sample was prepared in an air-saturated acetonitrile solution. Using a Atlas Photonics LUMOS BIO irradiator, the sample was constantly irradiated at 450 nm in time intervals from 0 to 10 min (13.2 J cm^−2). The absorption spectra from 350 to 700 nm was monitored with a SpectraMax M2 Microplate Reader (Molecular Devices) at each time interval. As positive and negative controls, respectively, [Ru(2,2′-bipyridine)3]Cl2 and Protoporphyrin IX were used.

[5] = Distribution coefficient (shake-flask, octanol/PBS); format: physicochemical; details: ICP-MS
Experimental: Using the “shake-flask” method, the distribution coefficient between the PBS and octanol phase of the sample was determined. The PBS and octanol phases were previously saturated in each other. The sample was dissolved in the phase, which is dissolving best the compound. This solution was added to an equal volume of the other phase and mixed at 190 rpm overnight with a sample mixer. Following this, the solutions were equilibrated for 4 h. The phases were carefully separated from each other. The amount of the sample in each phase was determined by ICP-MS. The evaluation was repeated three times and the ratio between the organic and aqueous phase determined.

[6] = tested on: human cervical carcinoma (HeLa) cells; experiment: (Photo-)cytotoxicity on 2D cell monolayers, HeLa; format: cell-based; details: for IC50: 1-3 as chloride salts; for PI (480 nm): dark vs 480 nm; for PI (540 nm): dark vs 540 nm
Experimental: (§1) A total of 4 × 10^3 cells were seeded on 96-well plates and allowed to adhere overnight. The cells were treated with increasing concentrations of the sample diluted in cell media achieving a total volume of 200 μL. The cells were incubated with the sample for 8 h and, after this time, the medium refreshed. To study the phototoxic effect of the sample, the cells were exposed to 480 nm (spectral half-width: 20 nm, 10 min, 5.2 mW cm^−2, 3.1 J cm^−2) or 540 nm (spectral half-width: 30 nm, 40 min, 4.0 mW cm^−2, 9.5 J cm^−2) light using an Atlas Photonics LUMOS BIO irradiator. To study the dark cytotoxicity of the sample, the cells were not irradiated and the medium exchanged. The cells were grown for an additional 40 h at 37 °C. After this time, the medium was replaced with fresh medium containing resazurin with a final concentration of 0.2 mg mL^−1. The cells were incubated for 4 h and the amount of the fluorescent product resorufin determined (λex = 540 nm, λem = 590 nm) with a SpectraMax M2 Microplate Reader (Molecular Devices). The obtained data was analyzed with the GraphPad Prism software.

[7] = tested on: noncancerous retinal pigment epithelium (RPE-1) cells
Experimental: as §1

[8] = tested on: human glioblastoma astrocytoma (U373) cells; experiment: (Photo-)cytotoxicity on 2D cell monolayers, U373; details: for PI (480 nm): U373, dark vs 480 nm; for PI (540 nm): U373, dark vs 540 nm; for IC50: 1-3 as chloride salts;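 as to all read-outs here: Resazurin-to-resorufin fluorescence viability readout, 8 h compound exposure then medium change, light dose 3.1 J cm^−2 at 480 nm or 9.5 J cm^−2 at 540 nm, analysed 40 h later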
Experimental: as §1

[9] = tested on: noncancerous retinal pigment epithelium (RPE-1) cells; experiment: (Photo-)cytotoxicity on 2D cell monolayers, RPE-1; details: for PI (480 nm): RPE-1, dark vs 480 nm; for PI (540 nm): RPE-1, dark vs 540 nm; for IC50: 1-3 as chloride salts
Experimental: as §1

[10] = tested on: mouse colon carcinoma (CT-26) cells; experiment: (Photo-)cytotoxicity on 2D cell monolayers, CT-26; details: for PI (480 nm): CT-26, dark vs 480 nm; for PI (540 nm): CT-26, dark vs 540 nm; for IC50: 1-3 as chloride salts
[11] = 480 nm, read-out: IC50 480 nm (10 min, 3.1 J cm-2)
[12] = 540 nm, read-out: IC50 540 nm (40 min, 9.5 J cm-2)
[13] = read-out: IC50 480 nm (10 min, 3.1 J cm-2), U373, 480 nm
[14] = read-out: IC50 dark, U373, dark
[15] = read-out: IC50 540 nm (40 min, 9.5 J cm-2), RPE-1, 540 nm
[16] = read-out: IC50 dark, RPE-1, dark
[17] = read-out: IC50 540 nm (40 min, 9.5 J cm-2), CT-26, 540 nm
[18] = read-out: IC50 dark, CT-26, dark

CN(C)c1ccc(/C=C/c2ccnc(-c3cc(/C=C/c4ccc(N(C)C)cc4)ccn3)c2)cc1.CN(C)c1ccc(/C=C/c2ccnc(-c3cc(/C=C/c4ccc(N(C)C)cc4)ccn3)c2)cc1.F[P-](F)(F)(F)(F)F.F[P-](F)(F)(F)(F)F.[Ru+2].c1ccc(-c2ccccn2)nc1 [compound 4, [Ru(2,2′-bipyridine)((E,E′)-4,4′-Bis[p-(N,N-dimethylamino)styryl]-2,2′-bipyridine)2][PF6]2]
σ2, 2P absorption cross section [1]: 838 GM
Φem, luminescence quantum yield [2]: 0.4%
λem, emission maximum [2]: 703 nm
τ air, excited state lifetime (Excited state lifetime): 69 ns
τ degassed, excited state lifetime (Excited state lifetime): 417 ns
Singlet oxygen quantum yield, Direct 450 nm CH3CN [3]: 34%
photostability (change of absorption spectra upon irradiation) [4]: small changes in the absorption spectra
logD (octanol/PBS) [5]: +1.7 ± 0.3
IC50 [6, 11]: 8.5 µM
IC50 [6, 12]: 10.6 µM
PI (480 nm) [6]: > 11.8
PI (540 nm) [6]: > 9.4
IC50 ([6]; dark, read-out: IC50 dark): > 100 µM
IC50 [7]: 10.9 µM
PI (480 nm) [8]: > 7.0
PI (540 nm) [8]: > 5.3
IC50 [8, 13]: 14.3 µM
IC50 [8, 14]: > 100 µM
PI (480 nm) [9]: > 9.2
PI (540 nm) [9]: > 6.8
IC50 [9, 15]: 14.7 µM
IC50 [9, 16]: > 100 µM
PI (480 nm) [10]: > 13.7
PI (540 nm) [10]: > 10.4
IC50 [10, 17]: 9.6 µM
IC50 [10, 18]: > 100 µM

COc1ccc(/C=C/c2ccnc(-c3cc(/C=C/c4ccc(OC)cc4)ccn3)c2)cc1.COc1ccc(/C=C/c2ccnc(-c3cc(/C=C/c4ccc(OC)cc4)ccn3)c2)cc1.F[P-](F)(F)(F)(F)F.F[P-](F)(F)(F)(F)F.[Ru+2].c1ccc(-c2ccccn2)nc1 [compound 5, [Ru(2,2′-bipyridine)((E,E′)-4,4′-Bis[p-methoxystyryl]-2,2′-bipyridine)2][PF6]2]
σ2, 2P absorption cross section [1]: 313 GM
Φem, luminescence quantum yield [2]: 1.4%
λem, emission maximum [2]: 674 nm
τ air, excited state lifetime (Excited state lifetime): 36 ns
τ degassed, excited state lifetime (Excited state lifetime): 231 ns
Singlet oxygen quantum yield, Direct 450 nm CH3CN [3]: 54%
photostability (change of absorption spectra upon irradiation) [4]: no significant differences in the absorption spectra
logD (octanol/PBS) [5]: +1.4 ± 0.2
IC50 [6, 11]: 6.4 µM
IC50 [6, 12]: 7.9 µM
PI (540 nm) [6]: > 12.7
IC50 ([6]; dark, read-out: IC50 dark): > 100 µM
IC50 [7]: 10.2 µM
PI (480 nm) [8]: > 6.5
PI (540 nm) [8]: > 5.6
IC50 [8, 13]: 15.3 µM
IC50 [8, 14]: > 100 µM
PI (480 nm) [9]: > 9.8
PI (540 nm) [9]: > 7.9
IC50 [9, 15]: 12.7 µM
IC50 [9, 16]: > 100 µM
PI (480 nm) [10]: > 19.6
PI (540 nm) [10]: > 16.1
IC50 [10, 17]: 6.2 µM
IC50 [10, 18]: > 100 µM

CN(C)c1ccc(/C=C/c2ccnc(-c3cc(/C=C/c4ccc(N(C)C)cc4)ccn3)c2)cc1.F[P-](F)(F)(F)(F)F.F[P-](F)(F)(F)(F)F.[Ru+2].c1ccc(-c2ccccn2)nc1.c1ccc(-c2ccccn2)nc1 [compound 6, [Ru(2,2′-bipyridine)2((E,E′)-4,4′-Bis[p-(N,N-dimethylamino)styryl]-2,2′-bipyridine)][PF6]2]
σ2, 2P absorption cross section [1]: 349 GM
Φem, luminescence quantum yield [2]: 0.5%
λem, emission maximum [2]: 697 nm
τ air, excited state lifetime (Excited state lifetime): 54 ns
τ degassed, excited state lifetime (Excited state lifetime): 405 ns
Singlet oxygen quantum yield, Direct 450 nm CH3CN [3]: 46%
photostability (change of absorption spectra upon irradiation) [4]: small changes in the absorption spectra
logD (octanol/PBS) [5]: +0.7 ± 0.2
IC50 [6, 11]: 5.3 µM
IC50 [6, 12]: 5.8 µM
PI (480 nm) [6]: > 18.9
PI (540 nm) [6]: > 17.2
IC50 ([6]; dark, read-out: IC50 dark): > 100 µM
IC50 [7]: 7.3 µM
PI (480 nm) [8]: > 12.0
PI (540 nm) [8]: > 9.3
IC50 [8, 13]: 8.3 µM
IC50 [8, 14]: > 100 µM
PI (480 nm) [9]: > 13.7
PI (540 nm) [9]: > 12.3
IC50 [9, 15]: 8.1 µM
IC50 [9, 16]: > 100 µM
PI (480 nm) [10]: > 41.7
PI (540 nm) [10]: > 32.3
IC50 [10, 17]: 3.1 µM
IC50 [10, 18]: > 100 µM
